Test results reported in a melting point compilation (Tetko et al.; mined from patent text by program, amines drawn as free bases though some values may be those of a salt).

Row | SMILES | melting point
1 | CNC1CC=C(c2c[nH]c3cc([N+](=O)[O-])ccc23)CC1 (stereo not drawn) | 170 to 172 °C
2 | Nc1nc(CCl)cc(OCC(F)(F)F)n1 | 77 to 78 °C
3 | CCc1ccc(COc2ccc(CC(NC(=O)c3cc4cc(-c5ccc(Cl)cc5)ccc4s3)C(=O)O)cc2)cc1 (stereo not drawn) | 205 °C
4 | OC1CCCc2nc3ccccc3c(NCc3cccc(F)c3)c21 (stereo not drawn) | 128 °C
5 | COC(=O)CC1Oc2ccccc2Oc2ccccc21 (stereo not drawn) | 72 to 74 °C
6 | O=C(Cn1nnnc1S)NO | 105 to 107 °C
7 | CC(C)(C)c1ccc(NC(=O)c2ccc(C3(C)OCCCO3)cc2)cc1 | 148 to 149 °C
8 | Cc1nc(N(C)C=O)sc1C(=O)CBr | 80 to 82 °C
9 | CN(C)c1ccc(/C=C/c2ccccc2F)c2ccccc12 | 56 to 58 °C
10 | COc1ccc(C2(C#Cc3ccc(C#N)s3)CCC(=O)CC2)cc1OC1CCCC1 | 106 to 107 °C
11 | COCOc1ccc(-c2ccc(C=C3SC(=O)NC3=O)cc2)cc1C12CC3CC(CC(C3)C1)C2 | 253 to 254 °C
12 | COc1ccc(CSCC2NC(=O)C2NC(=O)OC(C)(C)C)cc1 (stereo not drawn) | 120 to 123 °C
13 | CCCc1c(OCc2cccc(C(=O)O)c2)ccc(C(C)=O)c1O | 216 to 220 °C
14 | O=C(O)Cc1sccc1NC(=O)C(=O)NC(=O)c1ccco1 | 169 °C
15 | O=C1OC(C(O)CO)CCN1Cc1ccccc1 (stereo not drawn) | 100 to 102 °C
16 | OCC1CCN(c2nc3ccccc3s2)CC1 | 76 to 80 °C
17 | CCN1CCc2cc(OC)c(OC)cc2C1C1CC(C(=O)O)CCC12c1cc(OC)c(OC)cc1CCN2CC (stereo not drawn) | 124 to 126 °C
18 | CC1(c2ccc(C3(O)CCCCCC3)cc2)OCCO1 | 77 to 79 °C
19 | COc1ccccc1N1CC[N+]([O-])(CCN(C(=O)C2CCCCC2)c2ccccc2[N+](=O)[O-])CC1 | 128 to 132 °C
20 | CC1CN(C(=O)COc2cc(-c3ccccc3)nc3ccccc23)CC(C)O1 (stereo not drawn) | 117 °C
21 | COCOc1cc(OC)ccc1C=O | 55 to 56 °C

Row | SMILES | melting point
22 | COC(=O)c1cccc2nc(N)sc12 | 232 to 233 °C
23 | O=C(NCCCCCn1ccnc1)c1cc2cc(Cl)ccc2[nH]1 | 214 to 216 °C
24 | CCCCCCCCCCS(=O)(=O)Oc1c(I)cc(I)cc1I | 71 to 72 °C
25 | CC1(C(=O)c2c[nH]c3ncc(-c4cccc(N5CCN(C(=O)CC#N)CC5)c4)nc23)CCCCC1 | 214 to 216 °C
26 | CCN(CC)c1nc(Cl)nc(Cl)n1 | 77 to 79 °C
27 | ON=C(c1ccccc1)c1ccc(OCCCOc2ccc(C(=NO)c3ccccc3)cc2)cc1 | 205 to 208 °C
28 | OC(CN1CCN(C(c2ccccc2)c2ccccc2)CC1)c1ccc(OCc2ccccc2)cc1OCc1ccccc1 (stereo not drawn) | 151 °C
29 | O=C(NCCCc1c[nH]c(-c2ccc(F)cc2)c1-c1ccncc1)C(F)(F)F | 229 to 230 °C
30 | O=C(c1ccco1)c1cc([N+](=O)[O-])ccc1Cl | 93 to 96 °C
31 | CC(C)(C)OC(=O)CN(C(=O)CN1C(=O)c2ccccc2C1=O)c1ccccc1C(=O)N1CCCc2ccccc21 | 150 °C
32 | O=C(O)CC(=O)Nc1ccc(Br)cc1C(=O)O | 203 to 206 °C
33 | CC(C)(C)OC(=O)C(Cc1ccccc1)c1ccc([N+](=O)[O-])cc1 (stereo not drawn) | 98 to 99 °C
34 | CCOc1ccccc1C(=O)C=Cc1ccc2ccccc2c1 | 96 to 97 °C
35 | CC(n1cncn1)C(O)(COc1ccc(Cl)cc1)C(C)(C)C (stereo not drawn) | 80 to 104 °C
36 | O=C(O)CCCCNC(=O)c1ccc(Cl)cc1O | 140 to 141 °C
37 | CCCCC(C(C)C)C(CN)CC(=O)O (stereo not drawn) | 160 to 170 °C
38 | Brc1ccc2c(c1)C=NC=CN2 | 135 to 138 °C
39 | CSc1ccc(-c2oncc2C(=O)C2CC2)nc1 | 103 to 104 °C
40 | O=C1c2ccc([N+](=O)[O-])cc2COc2cc(Nc3ccc(F)cc3[N+](=O)[O-])ccc21 | 211 °C
41 | CCOC(=O)C=Cc1ccc(OCCc2nc(-c3ccccc3)oc2C)cc1 | 114 to 115 °C
42 | O=C(O)C1=Cc2cc(-c3ccc(Cl)cc3)ccc2OCC1 | 263 to 264 °C

Row | SMILES | melting point
43 | O=C(O)COc1ccc(SCc2cccc(OCc3ccc(C(F)(F)F)cc3)c2)c2c1CCCO2 | 113 to 115 °C
44 | CC(C)[C@@H](NS(=O)(=O)c1ccc2ccccc2c1)C(=O)O | 170 to 172 °C
45 | CC1(C)Cc2cccc(O)c2S1 | 87 to 92 °C
46 | CC(C)(Oc1ccc(OCc2ccccc2)cc1)C(=O)O | 134 to 137 °C
47 | N#CNc1cccc2ccccc12 | 132 to 133 °C
48 | CN(C)CCCCNC(=O)c1cccc(-c2nnc(CSCCOc3ccccc3)o2)c1 | 38 to 42 °C
49 | Cc1cc2ncnn2c(N2CCN(C)CC2)n1 | 95 to 98 °C
50 | COc1cc(OC)nc(NC(=O)NS(=O)(=O)c2ccccc2C=O)n1 | 180 °C
51 | O=C(O)COc1ccc(C2=CC(=O)CC(c3ccc(F)cc3)C2)c(Cl)c1Cl (stereo not drawn) | 190 to 192 °C
52 | CN=C(NC#N)Oc1ccccc1 | 132 to 133 °C
53 | O=C1c2cccc3c2N(CC3)c2ccccc2N1CC#CCN1CCCC1 | 80 to 81 °C
54 | Brc1ccn2nc(N3CCCC3)nc2c1 | 170 to 172 °C
55 | O=C1c2ccccc2C(=O)N1C1CCCc2sccc21 (stereo not drawn) | 166 to 168 °C
56 | NCCc1c[nH]c2ccc(-c3ccc(F)cc3)cc12 | > 250 °C
57 | O=C(N[C@@H](CO)c1ccccc1)c1cccc(I)c1 | 154 to 156 °C
58 | CC(=C1SCCCS1)c1cccc(N)c1 | 99 to 100 °C
59 | CSc1ccc(C=O)c(Cl)c1 | 76 to 77 °C
60 | O=C(NCc1ccccc1)n1c(=O)sc2c(Cl)cccc21 | 106 °C
61 | CCCCCCCNC(=O)Nc1cccc(-c2ccc(C=C(OC)C(=O)O)cc2OCCCC)c1 | 137 °C

Second part, the compound after the results:

Row | melting point | SMILES
62 | 94.5 to 96.5 °C | CCc1ccc(-c2nn(C)c(=O)c3ccccc23)c(CC)c1
63 | 192 to 193 °C | Cc1c(OCc2ccccc2)c(=O)ccn1CCO
64 | 109 to 110 °C | O=C1CCCN1c1cn(-c2cccnc2)nc1Cl
65 | 162 to 163 °C | COCn1ccnc1C(O)(c1ccc(Cl)cc1)c1ccc(C(C)(C)C)cc1 (stereo not drawn)
66 | 108 to 110 °C | Cn1c(=O)c2c(ncn2COC(=O)C(C)(C)C)n(C)c1=O
67 | 95 to 96 °C | Cc1cc2c(cc1Br)C(=O)CC(C)(C)O2
68 | 157 to 158 °C | COc1cc2c(c3c1OC(C)(C)C3)C(c1cccc(N(C(C)=O)c3cccnc3)c1)=NC(C)(C)C2
69 | 155 to 156 °C | NC(=O)CNC(=O)c1cccc(-c2cccc3oc(Cc4ccc(F)c(Cl)c4)cc23)c1
70 | 88.5 to 90 °C | CCC1CN(c2cccc(C(C)C)c2)C(=O)C1c1cccc(Cl)c1 (stereo not drawn)
71 | 164 to 166 °C | Cc1ccc(COc2ccc3c(c2)c(C=CC(=O)O)cn3CC(=O)N(C)CCc2ccccc2)cc1
72 | 117 to 119 °C | CCOC(=O)C1=Cc2cc(C#C[Si](C)(C)C)ccc2NC1C(F)(F)F (stereo not drawn)
73 | 252 °C | NC(=O)N1C(=O)C(C(=O)c2cccs2)c2cc(Cl)ncc21 (stereo not drawn)
74 | 108 to 109 °C | COc1ccc(C2=NN(c3cccc(C(=O)N4CCOCC4)c3)C(=O)C(C)(C)C2)cc1OC
75 | 245 to 246 °C | Cc1cc2c(=O)c(-c3nnnn3C)cn(C)c2cc1C
76 | 240 to 242 °C | COc1ccc(Cn2c(S)nnc2C(N)=O)cc1
77 | 186 to 187 °C | Cc1c(NC(=O)CC(C)(C)C)cc2c(c1C)OC(C)(C)C2Cc1ccccc1 (stereo not drawn)
78 | 131 to 132 °C | CSCC(C)(C)NC(=O)c1c(I)cccc1C(=O)Nc1ccc(-c2nnnn2C2CC2)cc1C
79 | 111 to 113 °C | COc1cc(C)c2c(c1)CCN2c1nc(Cl)cn(CCSC)c1=O
80 | 173 to 176 °C | O=c1n(CCCCN2CCC(n3c(=O)[nH]c4ccccc43)CC2)nc2n1-c1ccccc1OC2
81 | 257 to 260 °C | Cc1ccccc1C(=O)Nc1ccc(C(=O)N2CCc3cn(C)nc3-c3sccc32)cc1
82 | 223 to 224 °C | Cc1nn(C)c(O)c1C(=O)c1ccc(Cl)cc1[N+](=O)[O-]

Row | melting point | SMILES
83 | 175 to 176 °C | CS(=O)(=O)c1ccc(Oc2cc(OCc3cccc(Cl)n3)c3[nH]c(C4=NCC(CC(=O)O)S4)cc3c2)cc1 (stereo not drawn)
84 | 223 to 226 °C | CC(c1oc2ccccc2c(=O)c1-c1cccc(F)c1)n1nc(-c2cn[nH]c2)c2c(N)ncnc21 (stereo not drawn)
85 | 199 to 206 °C | CCn1c(=O)c(Oc2ccc(F)cc2F)cc2cnc(NC3CCOCC3)nc21
86 | 165 to 167 °C | CCN(CC)c1ccc(CNc2cc(C(=O)Nc3ccc(F)c(F)c3)ccc2OC)cc1
87 | 76 to 78 °C | Cc1ccc(S(=O)(=O)Oc2cccnc2)cc1
88 | 218 to 222 °C | Cc1noc(C)c1-c1nn(C(C)c2oc3ccccc3c(=O)c2-c2cccc(F)c2)c2ncnc(N)c12 (stereo not drawn)
89 | 215 to 218 °C | CC(=O)C1=C(O)C(=C(C)Nc2ccc(N)cc2)C(=O)OC1=O
90 | 147 to 150 °C | CC(C)NC(=O)c1ccc(-c2ccc3oc(C4CCN(C(=O)OC(C)C)CC4)nc3c2)cc1F
91 | 159 to 161 °C | CC(=O)c1cc(C(C)(C)C)cc(C(=O)O)c1O
92 | 240 °C | CCOC(=O)c1cnc2cccc(O)c2c1
93 | 155 to 157 °C | COc1cccc2c3c(c(=O)[nH]c12)CCN3c1cccc(C)c1
94 | 124 to 125 °C | COc1ccc(CN2C(=O)CC2C(=O)O)c(OC)c1 (stereo not drawn)
95 | 170 to 171 °C | COc1cc(OC)c2c(=O)c3ccccc3oc2c1
96 | 131 to 132 °C | Cc1cnc(CNC(=O)c2sc(N3C[C@@H](C)N(Cc4cc(F)cc(F)c4)C3=O)nc2C)cn1
97 | 261 to 263 °C | Cc1cccc(-c2ccc3c(C(N)=O)nn(-c4ccc(S(N)(=O)=O)cc4)c3c2)c1
98 | 191 to 192 °C | COC(=O)c1cc(C)c(C(=O)O)c(C)c1
99 | 136 to 137 °C | Cc1cc(C)cc(Sc2c(C(C)C)c(=O)[nH]c(=O)n2CC2=CC(CO)C(CO)C2)c1 (stereo not drawn)
100 | 140 to 142 °C | Cc1nc2ccc(Sc3cccc4cnccc34)cc2o1
101 | 194 to 196 °C | Cc1ccc2nc(-c3cccnc3N)n(-c3ccc(CC(=O)c4ccccc4)cc3)c2n1
102 | 294 to 295 °C | N#Cc1c2cccccc-2n(CC(=O)O)c1=O
103 | 142 to 145 °C | CCC(=O)Oc1cc(C(=O)c2c(Cl)cccc2Cl)c(C)cc1OC
